The values that follow come from patent US8758769B2, “Composition for preventing and treating acetaminophen inducing liver injury comprising the protein extract from Porphyra yezoensis” (Pukyong National University Industry Academic Cooperation …, priority 2006, dated 2014).

Data set [1] has as its system caspase-3, PARP, Bcl-2 in liver cell. The experiment in a line: Western blot of cell apoptosis related proteins in liver cell treated by AAP. The class given is cell-based. Particulars: liver cell treated by AAP according to the concentration, 24 hours. Here is the method: Through the above results, since it is confirmed that the cell apoptosis of the liver cell is induced by AAP, the liver cell is treated by means of AAP according to the concentration and the western blot is executed to observe the expression modes of the protein related to the cell apoptosis. For this, a cell is cultured at a culture dish of 100-mm diameter until it become a confluent monolayer of a confluent state by a medium containing 10% FBS. Thereafter, the medium is replaced with a serum free medium and cultured for 24 hours. After 24 hours, each sample is treated by a serum free medium added according to the concentration and cultured for 24 hours. The culture solution is removed, then washed by the cold PBS solution, and thereafter the cell is recovered through the cell lysate buffer solution containing 1% triton. After the centrifugal process, 4× Laemmli sample buffer (13.3% SDS, 0.4M Tris, 0.013% bromopheno blue, 40% glycerol, pH 6.5) is added to the obtained upper layer solution by 1× of concentration and then an electrophoresis manner is performed in 12.5% SDS-polyacrylamid gel by means of Mighty Small II Apparatus (Hopper Science Instruments, USA). After the electrophoresis manner, the protein separated into the gel is transferred to Immobilon-P membrane (Milipore corporation, the pore size: 0.1[…], USA) by means of Semi-dry Transfer unit, Sigma, USA), reacted at the room temperature for 2 hours in 1×TBS (Tris-buffered saline; 20 mM Tris-base, 137 mM NaCl, 1M HCl) containing 1% BSA, and thereafter left for a night at 4° C. by a primary antibody. Thereafter, the protein is washed by three times at each 10 minutes by TBS-T (Tris-buffered saline, 0.1% Tween 20) and reacted at the room temperature for 1 hour together with the anti-rabbit or anti-mouse IgG-conjugated horseradish peroxide secondary antibody diluted by 1:20,000. […]
In general terms: A western blot detects proteins with antibodies after separation by electrophoresis.

For data set [2], the system named is GSH (Glutathione) in the liver tissue. The experiment in a line: Glutathione content in the liver tissue. Type of data set: in vivo, rat. To be noted: rats, AAP 700 mg/kg; compared with the control group of 100%. Here is the method: Accordingly, the GSH activity in the liver tissue is measured. For this, the liver tissue is homogenized by 5% of sulfosalicylic acid, then frozen by the liquid nitrogen and thereafter a thaw process is executed repeatedly by twice in a cistern of 37° C. Thereafter, the defrosted liver tissue is left for 5 minutes At 4° C. and centrifuged at 4° C., 1,000×g, for 10 minutes, so that the upper solution is obtained. The upper solution and the standard solution within the GSH assay kit are divided into a 96-well plate, respectively, thereafter a working mixture is added to the 96-well plate, and a reaction is progressed at the room temperature for 5 minutes. After 5 minutes, NADPH is inserted into the above plate and mixed through a pipet and then the absorbance is measured by the interval of 5 minutes at 412 nm.

The conditions of data set [3]: rats, mean ± S.D. of 10 per group; AAP 700 mg/kg into the abdominal cavity, seaweed protein orally for two weeks.
Method: Animals for the experiment are male rats (body weight of 100±10 g), as Sparague Dawley of four-week-old, obtained from Hyochang science. 10 rats are divided into three groups, respectively (control group, AAP sole administration group and AAP+seaweed protein administration group), bred in row breeding cages for 7 days as a domestication preparation breeding. At this time, the temperature (22±1° C.), humidity (50±10%) and brightness (12 hours, 08˜18:00) of a breeding room are strictly controlled. After performing the domestication preparation breeding, general feed and water are freely supplied and then a saline solution (control group and AAP sole administration group) and the seaweed protein are orally administrated for two weeks. 700 mg/kg of AAP melted by DMSO is administrated into the abdominal cavity and after 24 hours, heads of rats are cut and then a blood-gathering process is performed. […] And the liver is extracted and washed by the saline solution and thereafter the weight thereof is measured and a part thereof is fixed into the bouin solution (picric acid:formalin:glacial acid=15:5:1). […]
To examine the influence on the liver tissue, liver weight and the change of body weight of the seaweed protein separated and purified at the example 1, the liver tissue of a rat is extracted and its weight is measured.
Data set [4] concerns DNA within the liver tissue. The experiment in a line: DNA fragmentation in the liver tissue. The class given is in vivo, rat. To be noted: rats, AAP 700 mg/kg. From the text: To confirm the modes of the cell apoptosis, DNA within the liver tissue is extracted and then the degree of fragmentation is examined.
In data set [5] the test system is HepG2 liver cell. Kind of data set: Proliferation of HepG2 liver cell by AAP treatment (MTS/MTT). Type of data set: cell-based. Particulars: AAP in serum free medium, 24 hours and 48 hours, FIG. 7. Here is the method: The used HepG2 liver cell is distributed by ATCC (American Type Culture Center).
Antibiotics (penicillin/streptomycin) of 100 units/ml is added to an MEM medium and then filtrated by a filter of 0.22[…]. Before the culture, FBS (Fetal bovine serum) is added, thereby obtaining the final concentration of 10%. The cell is cultured in a 5% CO2 incubator at 37° C. During the culture of the cell, the medium is replaced by twice a week and when the medium is a confluent state, the medium is washed by PBS (Phosphate Buffered Saline). Thereafter, the attached cells are separated by 0.05% of trypsin solution and centrifuged, then each cell is mixed, dispersed properly by using a pipet and divided identically.
To examine the cell proliferation and the toxicity, the HepG2 liver cell is controlled by concentration of 5×10^4 cells/ml, and divided into 96-well microplates (palcon, USA) by 100[…] per a well and cultured. After 24 hours, a medium is replaced with a serum free medium and then cultured again for 24 hours. A protein sample is dissolved into the serum free medium, then diluted until 0.01% concentration. The dilution solution by each concentration is added to each cell line and cultured for 24 hours at the 5% CO2 incubator at 37° C. […] Thereafter, the absorbance at 490 nm is measured by using an automatic ELIZA reader and the cell survival ratio is calculated by a calculation formula 1. […]

The test system of data set [6] is liver tissue of a rat. The experiment in a line: Liver appearance and H&E histology of liver tissue, AAP induced liver injury. Type of data set: in vivo. To be noted: rats, AAP 700 mg/kg abdominal administration, 24 hours. Here is the method: For this, the liver tissue of the white rat bred by each experiment group is extracted and lightly washed by the saline solution so that blood is removed. A portion of the liver tissue is cut and then the cut liver tissue is cut into thickness of 0.5 cm and fixed into Bouin fixation solution. Thereafter, the cut liver tissue is inserted into a tissue capsule within 24 hours by using the same fixation solution and fixed again. Thereafter, the fixed tissue is washed, inserted into an autotechnicon, dehydrated in the sequencing concentration alcohol and processed transparently by xylene. At an embedding center, paraffin is infiltrated into the tissue capsule and an embedding process is performed, so that a block is manufactured. The block is cut thinly with thickness of 5[…] by a rotary microtome and the cut blocks are left in a floating thermostat in order to be spreaded fully and then attached onto a clean slide glass. Thereafter, to firmly adhere the slide glass and the tissue cut pieces, the slide glass with the tissue cut pieces is left at a slide warmer maintaining temperature of about 60° C. Finally, to basically observe the arrangement of cell and the morphological change, all tissue pieces are dyed by Hematoxylin & Eosin capable of separately seeing the nucleus and cytoplasm and thereafter, observed by an optical microscopy.

Take `CC(=O)Nc1ccc(O)cc1` [AAP, Acetaminophen]: in data set [1], the “Caspase-3 cleavage/activity (western blot, FIG. 8)” value is “cleaved and then the activity is increased”; the “Expression of Bcl-2 (western blot, FIG. 8)” value is “inhibited according to the increase of the AAP concentration”; the “PARP cleavage (western blot, FIG. 8)” value was “cleaved from 116 kDa to 85 kDa”. The “GSH content in the liver tissue” value in data set [2] amounted to 85.39±4.81%. In data set [3], this molecule displayed a Final body weight of 299 ± 14.92 g and a Weight of liver of 10.86 ± 0.9 g. Also, the “DNA fragmentation in the liver tissue (FIG. 6(B))” value in data set [4] is “a certain DNA fraction is observed”. Moreover, the “Proliferation of the HepG2 liver cell” value in data set [5] is “inhibited according to increase of the AAP concentration and the culture time”. Besides, in data set [6], the “Colour/appearance of the liver (degree of liver injury, FIG. 2)” value is reported as “the liver tissue represents the bright brown” and the “Inside of the liver tissue by optical microscopy, H&E dyeing (FIG. 3)” value is “plural nucleus decomposition positions are observed about the central vein”.
